In one experiment the test system is P388. Put plainly: Cytotoxicity against mouse P388 cells assessed as reduction in cell viability at >= 20 nM after 96 hrs by MTT assay. It counts as functional, cell-based.
Experiment [1] addresses T1, NAD-dependent protein deacetylase sirtuin-1 (Homo sapiens) (UniProt Q96EB6).
T1 sequence (whole entry): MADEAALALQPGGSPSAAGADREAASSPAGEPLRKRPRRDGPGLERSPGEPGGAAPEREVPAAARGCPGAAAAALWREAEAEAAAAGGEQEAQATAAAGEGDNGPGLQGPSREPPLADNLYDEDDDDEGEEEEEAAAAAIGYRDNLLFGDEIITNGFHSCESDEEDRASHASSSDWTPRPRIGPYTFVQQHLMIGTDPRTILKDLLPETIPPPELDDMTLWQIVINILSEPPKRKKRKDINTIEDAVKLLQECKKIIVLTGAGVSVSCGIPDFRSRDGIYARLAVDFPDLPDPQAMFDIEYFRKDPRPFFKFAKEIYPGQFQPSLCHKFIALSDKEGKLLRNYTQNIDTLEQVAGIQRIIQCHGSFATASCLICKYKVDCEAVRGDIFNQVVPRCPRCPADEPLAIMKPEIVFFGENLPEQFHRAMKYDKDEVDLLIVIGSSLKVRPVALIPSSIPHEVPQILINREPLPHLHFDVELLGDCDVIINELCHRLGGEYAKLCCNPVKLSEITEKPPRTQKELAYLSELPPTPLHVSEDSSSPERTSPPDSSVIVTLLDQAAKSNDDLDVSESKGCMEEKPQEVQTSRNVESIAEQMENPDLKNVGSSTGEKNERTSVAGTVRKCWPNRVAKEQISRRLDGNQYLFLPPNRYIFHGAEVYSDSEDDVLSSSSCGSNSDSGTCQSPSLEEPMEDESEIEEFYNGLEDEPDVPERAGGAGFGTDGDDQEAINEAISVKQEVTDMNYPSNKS
Put plainly: Inhibition of human SIRT1 expressed in Escherichia coli BL21(DE3) up to 50 uM using Ac-RHKK(Ac)-MCA as substrate after 60 mins in presence of NAD by fluorescence assay.

The target of experiment [2] is Histone deacetylase 1 (Homo sapiens) (UniProt Q13547). Put plainly: Inhibition of human FLAG-tagged HDAC1 expressed in human 293T cells up to 50 uM using Ac-KGLGK(Ac)-MCA as substrate after 30 mins by fluorescence assay.
Histone deacetylase 1 (Homo sapiens), sequence (Q13547 whole entry): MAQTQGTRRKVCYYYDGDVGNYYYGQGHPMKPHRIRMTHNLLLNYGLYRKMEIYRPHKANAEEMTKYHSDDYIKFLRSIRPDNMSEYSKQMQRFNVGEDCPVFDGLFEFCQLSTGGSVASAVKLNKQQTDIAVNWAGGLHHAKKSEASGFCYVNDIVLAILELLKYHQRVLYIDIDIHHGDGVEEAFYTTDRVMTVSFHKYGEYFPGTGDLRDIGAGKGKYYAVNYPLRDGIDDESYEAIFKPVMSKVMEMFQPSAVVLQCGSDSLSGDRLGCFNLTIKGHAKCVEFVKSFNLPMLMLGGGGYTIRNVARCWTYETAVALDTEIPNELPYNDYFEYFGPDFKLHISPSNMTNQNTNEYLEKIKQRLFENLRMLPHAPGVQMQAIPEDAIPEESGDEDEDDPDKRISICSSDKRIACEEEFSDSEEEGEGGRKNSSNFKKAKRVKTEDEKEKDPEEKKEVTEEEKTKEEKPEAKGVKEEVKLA
The target of experiment [3] is T2, Protein deacetylase HDAC6 (Mus musculus) (UniProt Q9Z2V5).
T2 sequence (whole entry): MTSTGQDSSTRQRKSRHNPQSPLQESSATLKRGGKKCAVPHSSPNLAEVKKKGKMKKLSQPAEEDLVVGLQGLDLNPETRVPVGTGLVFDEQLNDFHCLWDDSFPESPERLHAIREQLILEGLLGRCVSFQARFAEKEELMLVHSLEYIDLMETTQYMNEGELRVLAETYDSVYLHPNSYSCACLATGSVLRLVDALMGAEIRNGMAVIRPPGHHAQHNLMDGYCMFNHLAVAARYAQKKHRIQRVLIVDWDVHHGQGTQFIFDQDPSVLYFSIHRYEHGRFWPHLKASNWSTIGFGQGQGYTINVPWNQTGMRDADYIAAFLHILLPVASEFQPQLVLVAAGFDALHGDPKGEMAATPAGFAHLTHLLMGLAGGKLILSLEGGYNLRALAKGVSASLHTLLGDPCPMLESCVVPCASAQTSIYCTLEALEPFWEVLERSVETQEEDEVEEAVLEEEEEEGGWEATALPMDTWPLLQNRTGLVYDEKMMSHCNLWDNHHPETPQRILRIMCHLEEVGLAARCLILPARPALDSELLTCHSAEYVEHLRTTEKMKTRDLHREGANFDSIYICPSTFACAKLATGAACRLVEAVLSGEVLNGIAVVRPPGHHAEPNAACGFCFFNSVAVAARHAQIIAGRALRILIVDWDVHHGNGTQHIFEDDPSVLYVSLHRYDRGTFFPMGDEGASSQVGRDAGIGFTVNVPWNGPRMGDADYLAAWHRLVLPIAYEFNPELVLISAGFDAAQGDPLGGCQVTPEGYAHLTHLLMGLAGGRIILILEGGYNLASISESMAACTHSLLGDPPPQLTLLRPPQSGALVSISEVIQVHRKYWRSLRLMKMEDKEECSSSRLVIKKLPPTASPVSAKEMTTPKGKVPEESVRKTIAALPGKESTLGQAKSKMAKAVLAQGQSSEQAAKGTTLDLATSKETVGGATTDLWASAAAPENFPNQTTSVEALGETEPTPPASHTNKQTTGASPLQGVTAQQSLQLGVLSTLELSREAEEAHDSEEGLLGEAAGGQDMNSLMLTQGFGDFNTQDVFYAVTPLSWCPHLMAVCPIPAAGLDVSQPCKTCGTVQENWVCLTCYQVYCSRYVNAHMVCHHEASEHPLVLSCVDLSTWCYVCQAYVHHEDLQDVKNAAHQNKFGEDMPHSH
Put plainly: Inhibition of mouse FLAG-tagged HDAC6 expressed in human 293T cells coexpressing HDA2 up to 50 uM using Ac-KGLGK(Ac)-MCA as substrate after 30 mins by fluorescence assay. The experiment is classed as cell-based.

The results in this text go back to ChEMBL document CHEMBL4041472, “Curacin E from the Brittle Star Ophiocoma scolopendrina” (J Nat Prod, 2016).

SMILES strings stand for the structures. Activity calls are given as the source filed them. The calls are words filed in the database; no cut-off is given here.

As to `CCC(=O)CC(CC/C=C/C=C/CC/C=C\[C@@H]1CSC([C@@H]2C[C@@H]2C)=N1)OC` (some centres undefined), the outcome in the experiment with P388 was Active. The inhibition entry in experiment [1], in experiment [2] and in experiment [3] was “inactive” throughout.
